Results taken from patent US5959130A, “Castor based benzoate esters” (Finetex, Inc., priority 1997, dated 1999).

Key:
Format in all cases: physicochemical
[1] = Hagman readings (particle size), Red No. 21 dispersion, Table VI A; settings: Red No. 21 35%
Experimental: (§1) The novel benzoate esters of the invention were tested for pigment and dye dispersing efficacy. Color pastes were prepared by dispersing dry pigment into the oil phase while hand stirring and then passing each mixture through a three roll mill six times, collecting a 16 oz. sample after each pass. The samples collected were subjected to particle size measurements.

[2] = viscosity readings of titanium dioxide dispersions, Table VI B; settings: Brookfield LVT-D @ 12 RPM, TiO2 50%
[3] = sunscreen solubility: PARSOL 1789, Table IV B
Text: (§2) These two sunscreens are difficult to dissolve and keep in solution for use in sunscreen formulations for optimal SPF (sun-protection factors). Higher solvency for a sunscreen ingredient is desirable as it allows higher concentrations of the sunscreen active ingredient in a formulation. This advantageously raises the SPF ratings for the formulation. The liquid organic sunscreens that are commonly used are octyl-methoxy cinnamate (OMC) and octyl salicylate (OS).
(§3) Solubility/Solvency Tables IVA and IVB show the solubility and concentrations of the sunscreen ingredient in the novel esters of the invention compared to their precursor raw materials (non-benzoate esters).

[4] = viscosity readings of Red No. 21 dispersions, Table VI B; settings: Brookfield LVT-D @ 12 RPM, Red No. 21 35%
[5] = sunscreen solubility: Benzophenone-3, Table IV A
Text: as §2, §3

[6] = physical properties of benzoate esters compared to precursors, Table II
Text: Absence of odor is an important factor in consumer acceptance of cosmetic and toiletry products.

[7] = refractive index of benzoate esters compared to precursors, Table V; settings: 25° C.
[8] = Hagman readings (particle size), titanium dioxide dispersion, Table VI A; settings: TiO2 50%
Experimental: as §1

[9] = Hagman readings (particle size), Red No. 6 Barium Lake dispersion, Table VI A; settings: Red No. 6 Barium Lake 35%
Experimental: as §1

[10] = 23° C., 10 gms sunscreen in 100 gms mixture
[11] = 30° C., 10 gms sunscreen in 100 gms mixture
[12] = 30° C., 15 gms sunscreen in 100 gms mixture

## CCCCCCCCCCCCCCCCOC(=O)CCCCCCC/C=C\C[C@H](O)CCCCCC [CR, Cetyl Ricinoleate, reference compound]
[1]; pass 1
  Hagman reading (particle size): ≤ 39 μm
[1]; pass 2
  Hagman reading (particle size): ≤ 36 μm
[1]; pass 3
  Hagman reading (particle size): ≤ 30 μm
[1]; pass 4
  Hagman reading (particle size): ≤ 26 μm
[1]; pass 5
  Hagman reading (particle size): ≤ 18 μm
[1]; pass 6
  Hagman reading (particle size): ≤ 14 μm
[2]; pass 1
  Viscosity reading of dispersion: Out of instrument range
[2]; pass 2
  Viscosity reading of dispersion: Out of instrument range
[2]; pass 3
  Viscosity reading of dispersion: Out of instrument range
[2]; pass 4
  Viscosity reading of dispersion: Out of instrument range
[2]; pass 5
  Viscosity reading of dispersion: Out of instrument range
[2]; pass 6
  Viscosity reading of dispersion: Out of instrument range
[3]; [10]
  Sunscreen solubility (Parsol 1789): +
[3]; [11]
  Sunscreen solubility (Parsol 1789): +
[3]; [12]
  Sunscreen solubility (Parsol 1789): +
[4]; pass 1
  Viscosity reading of dispersion: Out of instrument range
[4]; pass 2
  Viscosity reading of dispersion: Out of instrument range
[4]; pass 3
  Viscosity reading of dispersion: Out of instrument range
[4]; pass 4
  Viscosity reading of dispersion: Out of instrument range
[4]; pass 5
  Viscosity reading of dispersion: Out of instrument range
[4]; pass 6
  Viscosity reading of dispersion: Out of instrument range
[5]; [10]
  Sunscreen solubility (Benzophenone-3): +
[5]; [11]
  Sunscreen solubility (Benzophenone-3): +
[5]; [12]
  Sunscreen solubility (Benzophenone-3): +
[6]
  Color: light yellow
[6]; 25° C.
  S.G. (specific gravity): 0.874
[6]; Brookfield Viscometer, Spindle # 1, 10 rpm
  VISCOSITY: 65 cps
[6]; Table II
  REFRACTIVE INDEX: 1.4580
[7]
  Refractive Index, Typical: 1.4580
[8]; pass 1
  Hagman reading (particle size): ≤ 93 μm
[8]; pass 2
  Hagman reading (particle size): ≤ 80 μm
[8]; pass 3
  Hagman reading (particle size): ≤ 80 μm
[8]; pass 4
  Hagman reading (particle size): ≤ 76 μm
[8]; pass 5
  Hagman reading (particle size): ≤ 50 μm
[8]; pass 6
  Hagman reading (particle size): ≤ 43 μm
[9]; pass 1
  Hagman reading (particle size): ≤ 49 μm
[9]; pass 2
  Hagman reading (particle size): ≤ 48 μm
[9]; pass 3
  Hagman reading (particle size): ≤ 40 μm
[9]; pass 4
  Hagman reading (particle size): ≤ 38 μm
[9]; pass 5
  Hagman reading (particle size): ≤ 33 μm
[9]; pass 6
  Hagman reading (particle size): ≤ 30 μm
